We go through nine compounds from ChEMBL document CHEMBL1201862, “PubChem BioAssay data set” (2004).

Activity calls are given as the source filed them.

In one assay the test system is HeLa. In words: viability loss in HeLa cells – cell-based, 24 h, cherry-picked samples, cytotoxicity control, dose response (AID 504726).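 Note: potency for cytotoxicity as loss of luminescence signal.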 The assay is classed as functional. Conditions: Homo sapiens.
For another assay, the target named is T1, ORF 73 (Human herpesvirus 8, UniProt O40947).
T1 sequence (O40947 whole entry): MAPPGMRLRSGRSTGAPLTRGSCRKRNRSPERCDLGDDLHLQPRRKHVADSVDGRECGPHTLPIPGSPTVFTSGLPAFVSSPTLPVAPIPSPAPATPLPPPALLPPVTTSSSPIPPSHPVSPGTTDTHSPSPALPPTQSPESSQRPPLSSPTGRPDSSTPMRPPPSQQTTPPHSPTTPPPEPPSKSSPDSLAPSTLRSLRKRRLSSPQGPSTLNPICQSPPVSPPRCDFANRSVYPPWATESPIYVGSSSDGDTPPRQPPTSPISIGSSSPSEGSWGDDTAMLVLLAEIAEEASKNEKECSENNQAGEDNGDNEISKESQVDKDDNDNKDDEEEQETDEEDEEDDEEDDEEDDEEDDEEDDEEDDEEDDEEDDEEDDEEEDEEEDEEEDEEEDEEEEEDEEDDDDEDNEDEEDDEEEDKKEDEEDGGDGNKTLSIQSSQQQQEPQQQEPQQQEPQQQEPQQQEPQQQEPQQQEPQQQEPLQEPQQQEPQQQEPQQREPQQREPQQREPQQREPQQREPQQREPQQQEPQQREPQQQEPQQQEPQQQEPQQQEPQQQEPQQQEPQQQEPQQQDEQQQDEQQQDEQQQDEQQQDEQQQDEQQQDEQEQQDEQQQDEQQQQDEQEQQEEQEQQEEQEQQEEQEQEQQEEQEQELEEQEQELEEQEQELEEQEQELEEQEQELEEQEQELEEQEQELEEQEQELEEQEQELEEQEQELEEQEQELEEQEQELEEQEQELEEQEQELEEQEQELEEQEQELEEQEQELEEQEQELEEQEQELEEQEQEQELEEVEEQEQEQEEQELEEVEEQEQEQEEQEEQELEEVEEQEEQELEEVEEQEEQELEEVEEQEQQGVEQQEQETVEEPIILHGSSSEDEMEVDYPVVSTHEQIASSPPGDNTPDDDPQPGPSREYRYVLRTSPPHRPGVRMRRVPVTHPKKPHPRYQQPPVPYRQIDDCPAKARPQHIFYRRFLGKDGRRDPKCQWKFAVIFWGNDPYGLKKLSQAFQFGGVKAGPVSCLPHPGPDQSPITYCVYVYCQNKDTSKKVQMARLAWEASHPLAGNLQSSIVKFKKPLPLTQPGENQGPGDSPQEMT
The experiment in a line: KSHV LANA DNA-binding disruption – biochemical, fluorescence polarization, cherry-picked samples, dose response (AID 504725).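 Note: fluorescence polarization of a labeled DNA duplex reporting LANA DNA binding; potency is for inhibitors that block LANA binding to the DNA.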 Further details: species or system Human gammaherpesvirus 8.

The target of assay [1] is T2, Insulin-degrading enzyme (Homo sapiens, UniProt P14735).
T2 sequence (P14735 whole entry): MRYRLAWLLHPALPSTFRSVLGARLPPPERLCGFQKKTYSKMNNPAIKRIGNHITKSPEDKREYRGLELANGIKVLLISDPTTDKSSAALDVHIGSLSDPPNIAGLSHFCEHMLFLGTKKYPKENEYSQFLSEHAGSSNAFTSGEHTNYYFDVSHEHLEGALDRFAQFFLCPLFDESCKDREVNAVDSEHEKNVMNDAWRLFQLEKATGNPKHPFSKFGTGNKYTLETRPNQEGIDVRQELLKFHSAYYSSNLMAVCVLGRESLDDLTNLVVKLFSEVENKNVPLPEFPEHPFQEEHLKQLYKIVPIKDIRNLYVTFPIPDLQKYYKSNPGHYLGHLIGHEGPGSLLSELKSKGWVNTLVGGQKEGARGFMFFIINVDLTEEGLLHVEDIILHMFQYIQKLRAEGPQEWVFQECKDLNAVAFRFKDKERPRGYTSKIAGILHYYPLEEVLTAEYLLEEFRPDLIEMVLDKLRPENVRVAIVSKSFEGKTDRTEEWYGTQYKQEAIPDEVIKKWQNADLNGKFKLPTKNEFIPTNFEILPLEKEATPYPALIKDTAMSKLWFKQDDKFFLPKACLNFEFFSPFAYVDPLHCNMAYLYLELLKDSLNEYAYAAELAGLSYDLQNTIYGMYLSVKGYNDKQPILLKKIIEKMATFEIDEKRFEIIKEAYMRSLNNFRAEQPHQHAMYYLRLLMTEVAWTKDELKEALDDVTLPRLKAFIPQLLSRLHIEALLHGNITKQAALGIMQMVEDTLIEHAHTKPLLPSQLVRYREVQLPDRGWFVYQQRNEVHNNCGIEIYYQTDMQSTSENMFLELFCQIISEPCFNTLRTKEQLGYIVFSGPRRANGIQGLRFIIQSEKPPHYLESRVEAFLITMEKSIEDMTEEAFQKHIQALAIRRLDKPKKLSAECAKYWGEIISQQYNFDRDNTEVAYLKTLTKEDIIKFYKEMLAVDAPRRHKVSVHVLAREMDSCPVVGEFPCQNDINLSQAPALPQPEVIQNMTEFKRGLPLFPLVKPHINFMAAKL
The experiment in a line: recombinant IDE activation, cell-free – biochemical, fluorescence polarization, counter-screen for IDE activator project, dose response (AID 588681). Background: In fluorescence polarisation assays a small probe gives low polarisation when free and higher when bound to something large.

In assay [2] the target is T2, Insulin-degrading enzyme. The experiment in a line: cellular IDE activation of Abeta substrate cleavage – fluorescence polarization, HEK cells, dose response (AID 588439). It counts as functional, cell-based.
In assay [3] the test system is HEK293. In words: membrane integrity loss in HEK cells – cell-based, fluorescence, cytotoxicity control for IDE activator project, dose response (AID 588440).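 Note: cytotoxicity by LDH release measuring loss of membrane integrity.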 It counts as functional. Conditions: Homo sapiens.
Assay [4] has as its system HEK293. In words: optical interference in Abeta FP readout, dose response, artefact control for IDE activator project, biochemical, fluorescence polarization (AID 588442). The assay is classed as functional, cell-based. The following applies: Homo sapiens.
For a further assay, the target named is Protein S100-A4 (Homo sapiens, UniProt P26447). The experiment in a line: human S100A4 peptide interaction inhibition curves – biochemical, fluorescence polarization, cherry-picked hits, dose response (AID 687001). It counts as functional.
Sequence of Protein S100-A4 (P26447 whole entry): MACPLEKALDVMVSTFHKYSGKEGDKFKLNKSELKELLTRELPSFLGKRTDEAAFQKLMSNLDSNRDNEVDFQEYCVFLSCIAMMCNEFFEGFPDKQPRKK
Assay [5] addresses Oxysterols receptor LXR-beta (Homo sapiens, UniProt P55055). The assay is classed as functional, cell-based.
The subject of another assay is H9c2. The experiment in a line: cells. The assay is classed as functional, cell-based. Conditions: Rattus norvegicus, H9c2, Myocardium.
Another assay concerns the target Albumin (Bos taurus, UniProt P02769). In words: Counterscreen for inhibitors of T-cell receptor (TCR)-CD3 interaction: Fluorescence-based biochemical high throughput dose response assay to identify inhibitors of T-cell receptor (TCR)-CD3 interaction using a TAMRA-labeled BSA probe. The assay is classed as functional. In general terms: Counterscreens check selectivity or assay interference.

Assay [6] in a line: cytotoxicity in HEK293 background cells – cell-based, dry powder, set 2, counter-screen for EBV LMP1 inhibitor project, dose response (AID 624374). It counts as functional.
Assay [7] can be described thus: inhibitors of EBV LMP1 NF-kappaB signaling – cell-based, luciferase reporter, luminescence, dry powder, set 2, dose response (AID 624376). The assay is classed as functional. Background: In a reporter assay the amount or activity of a reporter protein is the signal.
In assay [8] the target is T3, Replicative DNA helicase DnaB (Mycobacterium tuberculosis, UniProt P9WMR3).
T3 sequence (P9WMR3 whole entry): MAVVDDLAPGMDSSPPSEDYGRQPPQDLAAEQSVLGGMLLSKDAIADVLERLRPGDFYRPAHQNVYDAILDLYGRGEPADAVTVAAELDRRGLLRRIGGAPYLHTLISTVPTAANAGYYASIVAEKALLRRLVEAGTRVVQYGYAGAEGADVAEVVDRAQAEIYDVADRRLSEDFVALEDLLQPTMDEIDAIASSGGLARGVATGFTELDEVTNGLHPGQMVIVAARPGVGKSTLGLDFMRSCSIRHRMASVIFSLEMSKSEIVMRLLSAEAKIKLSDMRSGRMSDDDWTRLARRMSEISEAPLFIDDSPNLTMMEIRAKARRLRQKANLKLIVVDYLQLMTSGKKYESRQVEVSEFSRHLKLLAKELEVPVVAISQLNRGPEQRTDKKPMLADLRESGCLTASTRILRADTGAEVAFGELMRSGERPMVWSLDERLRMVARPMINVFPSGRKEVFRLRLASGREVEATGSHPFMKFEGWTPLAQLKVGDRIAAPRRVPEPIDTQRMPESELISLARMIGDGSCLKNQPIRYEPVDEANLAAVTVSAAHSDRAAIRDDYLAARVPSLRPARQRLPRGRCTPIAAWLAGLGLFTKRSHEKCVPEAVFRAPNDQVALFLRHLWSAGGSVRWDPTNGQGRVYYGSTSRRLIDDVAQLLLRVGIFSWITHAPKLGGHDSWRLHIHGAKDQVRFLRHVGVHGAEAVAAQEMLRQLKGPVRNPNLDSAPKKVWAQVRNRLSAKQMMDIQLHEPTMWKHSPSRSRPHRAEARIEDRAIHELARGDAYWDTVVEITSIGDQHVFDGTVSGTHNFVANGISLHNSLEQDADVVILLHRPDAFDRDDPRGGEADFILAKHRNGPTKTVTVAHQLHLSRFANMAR
In words: DnaB intein splicing inhibitors, dose response, biochemical, cell-free fluorescence (AID 449749). It counts as functional.

Another assay deals with T4, Protein RecA (Mycobacterium tuberculosis, UniProt P9WHJ3).
T4 sequence (P9WHJ3 whole entry): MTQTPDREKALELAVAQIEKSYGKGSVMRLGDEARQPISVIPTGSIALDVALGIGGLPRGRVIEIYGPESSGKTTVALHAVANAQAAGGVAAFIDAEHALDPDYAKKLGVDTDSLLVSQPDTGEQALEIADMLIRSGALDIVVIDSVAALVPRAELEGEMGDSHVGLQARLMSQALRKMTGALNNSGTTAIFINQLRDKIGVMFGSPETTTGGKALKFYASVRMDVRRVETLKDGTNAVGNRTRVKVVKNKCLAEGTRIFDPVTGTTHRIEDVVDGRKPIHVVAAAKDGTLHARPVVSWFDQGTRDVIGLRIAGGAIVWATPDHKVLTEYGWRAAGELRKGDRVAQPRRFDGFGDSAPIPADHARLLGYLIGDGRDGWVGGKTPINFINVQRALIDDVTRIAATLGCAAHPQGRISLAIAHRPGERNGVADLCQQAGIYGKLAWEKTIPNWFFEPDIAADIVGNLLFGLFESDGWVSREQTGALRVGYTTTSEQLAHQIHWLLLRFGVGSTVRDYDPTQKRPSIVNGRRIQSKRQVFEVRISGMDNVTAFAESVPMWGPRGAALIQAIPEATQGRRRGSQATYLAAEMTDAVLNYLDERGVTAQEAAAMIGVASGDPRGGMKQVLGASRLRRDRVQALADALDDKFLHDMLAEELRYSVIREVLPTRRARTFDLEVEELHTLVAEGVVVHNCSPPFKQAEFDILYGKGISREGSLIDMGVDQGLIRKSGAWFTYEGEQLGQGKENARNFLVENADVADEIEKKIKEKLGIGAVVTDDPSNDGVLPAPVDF
The experiment in a line: Fluorescence Cell-Free Homogeneous Dose Retest to Identify Inhibitors of RecA-Intein Splicing Activity. [Related pubchem assays (depositor defined):AID2097, AID2223, AID489010, AID492950]. The assay is classed as functional.

The target in assay [9] is Tyrosyl-DNA phosphodiesterase 2 (Homo sapiens, UniProt O95551). In words: potency against TDP2 phosphodiesterase activity – biochemical, epi absorbance, IC50, dose response (AID 743297).
Sequence of Tyrosyl-DNA phosphodiesterase 2 (O95551 whole entry): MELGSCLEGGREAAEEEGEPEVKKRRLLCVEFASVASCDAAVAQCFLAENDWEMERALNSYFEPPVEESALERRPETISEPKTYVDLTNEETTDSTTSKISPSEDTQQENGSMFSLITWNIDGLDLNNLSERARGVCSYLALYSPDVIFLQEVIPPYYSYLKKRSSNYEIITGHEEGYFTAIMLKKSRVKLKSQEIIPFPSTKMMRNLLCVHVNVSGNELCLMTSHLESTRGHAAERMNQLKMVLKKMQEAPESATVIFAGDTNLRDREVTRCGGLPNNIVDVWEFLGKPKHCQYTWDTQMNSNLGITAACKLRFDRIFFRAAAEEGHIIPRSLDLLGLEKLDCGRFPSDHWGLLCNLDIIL
Assay [10] in a line: Late stage assay provider results from the probe development effort to identify selective inhibitors of heat shock protein 90 (HSP90): Absorbance-based cell proliferation assay in SKBR3 cells. The assay is classed as functional. Conditions: SK-BR-3.
A short description of assay [11]: Late stage assay provider results from the probe development effort to identify selective inhibitors of heat shock protein 90 (HSP90): Absorbance-based cell proliferation assay in MCF7 cells. The assay is classed as functional.
Assay [12] in a line: A Cell-Based Confirmatory Screen for Compounds that Inhibit VEEV, TC-83 (8). The assay is classed as functional.
Assay [13] is described as follows: disruptors of Keap1/Nrf2 protein interaction – biochemical, fluorescence polarization, dry powder, set 3, dose response (AID 651806).
In assay [14] the target is Metabotropic glutamate receptor 3 (Rattus norvegicus, UniProt P31422). The experiment in a line: inhibition of rat mGlu3 glutamate signaling – HEK/GIRK cells, thallium flux, dose response (AID 651839). The assay is classed as functional.
Sequence of Metabotropic glutamate receptor 3 (P31422 whole entry): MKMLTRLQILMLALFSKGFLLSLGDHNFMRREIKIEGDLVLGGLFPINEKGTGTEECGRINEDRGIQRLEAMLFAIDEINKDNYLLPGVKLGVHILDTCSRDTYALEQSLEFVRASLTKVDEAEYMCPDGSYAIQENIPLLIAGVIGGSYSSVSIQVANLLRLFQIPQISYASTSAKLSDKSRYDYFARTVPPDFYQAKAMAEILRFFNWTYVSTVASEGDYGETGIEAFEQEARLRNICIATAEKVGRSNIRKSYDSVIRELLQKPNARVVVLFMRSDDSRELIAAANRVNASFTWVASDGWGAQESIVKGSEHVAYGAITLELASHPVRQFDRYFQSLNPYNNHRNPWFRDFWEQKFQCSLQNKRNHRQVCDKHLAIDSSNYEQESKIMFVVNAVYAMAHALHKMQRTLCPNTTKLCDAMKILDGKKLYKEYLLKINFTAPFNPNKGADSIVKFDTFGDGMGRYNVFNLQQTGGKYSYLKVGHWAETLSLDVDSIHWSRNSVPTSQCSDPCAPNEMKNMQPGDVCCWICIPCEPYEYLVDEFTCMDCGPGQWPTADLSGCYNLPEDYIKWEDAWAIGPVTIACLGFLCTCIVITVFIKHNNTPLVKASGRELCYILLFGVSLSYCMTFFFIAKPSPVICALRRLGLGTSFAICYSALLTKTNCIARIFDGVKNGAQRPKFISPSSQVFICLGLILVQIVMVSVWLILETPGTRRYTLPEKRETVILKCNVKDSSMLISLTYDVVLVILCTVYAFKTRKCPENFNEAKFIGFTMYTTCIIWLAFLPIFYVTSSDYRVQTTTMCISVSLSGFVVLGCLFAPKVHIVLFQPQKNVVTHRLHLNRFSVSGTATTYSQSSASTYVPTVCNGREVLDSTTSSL

A word on the AC50: it is the concentration at which the activity in the assay is half-maximal. For orientation: EC50 means the concentration needed to bring the measured effect to its halfway point. Usually IC50 stands for the concentration that inhibits the measured activity by half.

Sequence of Oxysterols receptor LXR-beta (P55055 whole entry): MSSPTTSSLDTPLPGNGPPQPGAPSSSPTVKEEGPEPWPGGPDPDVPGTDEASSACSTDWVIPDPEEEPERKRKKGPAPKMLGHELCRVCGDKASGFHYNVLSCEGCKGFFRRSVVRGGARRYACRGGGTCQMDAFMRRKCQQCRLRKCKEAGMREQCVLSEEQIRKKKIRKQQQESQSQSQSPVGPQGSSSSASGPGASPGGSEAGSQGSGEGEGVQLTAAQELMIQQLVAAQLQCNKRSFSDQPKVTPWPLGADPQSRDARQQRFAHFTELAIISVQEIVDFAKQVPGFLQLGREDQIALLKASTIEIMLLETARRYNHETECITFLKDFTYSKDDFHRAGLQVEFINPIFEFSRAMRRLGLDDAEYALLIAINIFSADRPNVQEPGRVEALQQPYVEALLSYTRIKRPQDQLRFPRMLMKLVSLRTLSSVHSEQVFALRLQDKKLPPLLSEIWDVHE
Sequence of Albumin (P02769 whole entry): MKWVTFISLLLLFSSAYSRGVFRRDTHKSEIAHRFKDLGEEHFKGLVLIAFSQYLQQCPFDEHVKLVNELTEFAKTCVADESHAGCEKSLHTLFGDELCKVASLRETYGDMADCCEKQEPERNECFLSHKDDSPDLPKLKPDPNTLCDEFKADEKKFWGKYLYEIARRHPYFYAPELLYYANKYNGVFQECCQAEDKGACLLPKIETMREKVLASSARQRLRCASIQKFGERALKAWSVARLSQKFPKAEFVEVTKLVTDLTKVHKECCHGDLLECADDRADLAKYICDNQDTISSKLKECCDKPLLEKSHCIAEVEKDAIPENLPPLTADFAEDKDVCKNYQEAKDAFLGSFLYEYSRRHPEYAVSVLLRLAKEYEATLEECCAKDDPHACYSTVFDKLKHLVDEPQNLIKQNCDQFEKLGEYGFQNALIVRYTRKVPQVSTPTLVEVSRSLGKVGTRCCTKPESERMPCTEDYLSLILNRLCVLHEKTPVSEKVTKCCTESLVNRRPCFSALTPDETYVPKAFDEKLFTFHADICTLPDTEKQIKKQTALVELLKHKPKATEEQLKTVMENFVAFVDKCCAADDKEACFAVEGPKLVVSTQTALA

`COc1ccc2c3c(cccc13)C(=O)CC2`: the AC50 in the assay with HeLa was 31.7 µM (active); at ORF 73 it was 6.76 µM (active); on Protein S100-A4, 7.21 µM (active). In addition, the EC50 at Insulin-degrading enzyme [1] is > 54.7 µM (inactive); on Insulin-degrading enzyme [2] it was > 54.7 µM (inactive); in the assay with HEK293 [4] it was > 18.6 µM (inactive). Further, in the assay on HEK293 [3], the IC50 is > 89.2 µM (inactive).
For `O=C(O)c1cc(-c2cccs2)[nH]n1`, the EC50 in [5] is > 67.6 µM (inactive).
As to `COC(=O)Cn1/c(=N/C(=O)c2cc(-c3cccs3)nc3ccccc23)sc2cc(S(N)(=O)=O)ccc21`, the IC50 in the assay on H9c2 was 28.2 µM (active); at Albumin, > 94.1 µM (inactive).
As to `CCC(=O)N1Cc2cc(C(=O)Nc3nccs3)nc(-c3cccc(-c4ccccc4OC)c3)c2[C@H]1CCO`, the AbsAC35 in assay [6] was found to be 247.5 µM; in [7] it was 49.1 µM.
As to `Cc1cc(=O)n(C2CCS(=O)(=O)C2)[nH]1` (stereo not given), in assay [8], the half-maximal activity concentration (AC50) was 3.43 µM (active). Moreover, the EC50 on Protein RecA was 1.91 µM (active). Besides, the IC50 in assay [9] is > 128 µM (inactive).
For `COc1ccccc1NC(=O)c1cc(=O)c(OC)c[nH]1`, the IC50 in assay [10] and in assay [11] was > 100 µM (inactive) each time.
`CN1CCN(C)/C(=N/c2ccc(F)cc2C(=O)Nc2ccccc2)C1`: the IC50 in assay [12] was 6.39 µM (active).
Consider `O=C(O)Cc1ccccc1C(=O)N1CCc2ccccc2[C@H]1CN1C(=O)c2ccccc2C1=O`, for which, in [13], the AC50 is 61.4 µM (active).
Turning to `COc1ccc(C#Cc2ccc(C(=O)N3CCC(OC)C3)cc2)cc1` (stereo not given), in assay [14], the concentration for half-maximal inhibition (IC50) was 10.7 µM (active).
